Data: patent US10399940B2, “Substituted pyrrolidines and methods of use” (AbbVie S.à.r.l., priority 2016, dated 2019)
Like-named read-outs stand apart in the source and are kept apart here.

Target: T1, F508delCFTR (Homo sapiens, UniProt P13569, DEL508-508)
T1 construct: expressed in transfected cells; host or cells: CFBE41o- (human lung derived epithelial cell line), doxycycline-inducible expression
Assay: Cell Surface Expression-Horse Radish Peroxidase (CSE-HRP) assay
Type: cell-based
Details: CFBE41o-F508delCFTR-HRP cells; for Maximum % activity (with co-corrector): with co-corrector (2 μM); for Maximum % activity (with co-corrector) / Maximum % activity (without co-corrector): normalized to on-plate positive control, highest concentration 20 μM
Method in brief: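 CFBE41o- cells expressed F508delCFTR with HRP in the fourth exofacial loop, induced by 0.5 μg/mL doxycycline for 72 h at 37 °C. Compounds alone or with 2 μM co-corrector ran 18–24 h at 33 °C, 8-point 3-fold from 20 μM. Washed-cell luminol luminescence was normalized to DMSO and positive control, fitted sigmoidally for EC50 (three plates).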

[1] = test compound without co-corrector, 18-24 hours at 33° C., read-out: EC50 (without co-corrector)
[2] = with co-corrector (2 μM of 3-[(2R,4R)-4-({[1-(2,2-difluoro-1,3-benzodioxol-5-yl)cyclopropyl]carbonyl}amino)-7-methoxy-3,4-dihydro-2H-chromen-2-yl]benzoic acid), read-out: EC50 (with co-corrector)

T1 sequence (P13569 with tags, fused parts or gaps DEL508-508): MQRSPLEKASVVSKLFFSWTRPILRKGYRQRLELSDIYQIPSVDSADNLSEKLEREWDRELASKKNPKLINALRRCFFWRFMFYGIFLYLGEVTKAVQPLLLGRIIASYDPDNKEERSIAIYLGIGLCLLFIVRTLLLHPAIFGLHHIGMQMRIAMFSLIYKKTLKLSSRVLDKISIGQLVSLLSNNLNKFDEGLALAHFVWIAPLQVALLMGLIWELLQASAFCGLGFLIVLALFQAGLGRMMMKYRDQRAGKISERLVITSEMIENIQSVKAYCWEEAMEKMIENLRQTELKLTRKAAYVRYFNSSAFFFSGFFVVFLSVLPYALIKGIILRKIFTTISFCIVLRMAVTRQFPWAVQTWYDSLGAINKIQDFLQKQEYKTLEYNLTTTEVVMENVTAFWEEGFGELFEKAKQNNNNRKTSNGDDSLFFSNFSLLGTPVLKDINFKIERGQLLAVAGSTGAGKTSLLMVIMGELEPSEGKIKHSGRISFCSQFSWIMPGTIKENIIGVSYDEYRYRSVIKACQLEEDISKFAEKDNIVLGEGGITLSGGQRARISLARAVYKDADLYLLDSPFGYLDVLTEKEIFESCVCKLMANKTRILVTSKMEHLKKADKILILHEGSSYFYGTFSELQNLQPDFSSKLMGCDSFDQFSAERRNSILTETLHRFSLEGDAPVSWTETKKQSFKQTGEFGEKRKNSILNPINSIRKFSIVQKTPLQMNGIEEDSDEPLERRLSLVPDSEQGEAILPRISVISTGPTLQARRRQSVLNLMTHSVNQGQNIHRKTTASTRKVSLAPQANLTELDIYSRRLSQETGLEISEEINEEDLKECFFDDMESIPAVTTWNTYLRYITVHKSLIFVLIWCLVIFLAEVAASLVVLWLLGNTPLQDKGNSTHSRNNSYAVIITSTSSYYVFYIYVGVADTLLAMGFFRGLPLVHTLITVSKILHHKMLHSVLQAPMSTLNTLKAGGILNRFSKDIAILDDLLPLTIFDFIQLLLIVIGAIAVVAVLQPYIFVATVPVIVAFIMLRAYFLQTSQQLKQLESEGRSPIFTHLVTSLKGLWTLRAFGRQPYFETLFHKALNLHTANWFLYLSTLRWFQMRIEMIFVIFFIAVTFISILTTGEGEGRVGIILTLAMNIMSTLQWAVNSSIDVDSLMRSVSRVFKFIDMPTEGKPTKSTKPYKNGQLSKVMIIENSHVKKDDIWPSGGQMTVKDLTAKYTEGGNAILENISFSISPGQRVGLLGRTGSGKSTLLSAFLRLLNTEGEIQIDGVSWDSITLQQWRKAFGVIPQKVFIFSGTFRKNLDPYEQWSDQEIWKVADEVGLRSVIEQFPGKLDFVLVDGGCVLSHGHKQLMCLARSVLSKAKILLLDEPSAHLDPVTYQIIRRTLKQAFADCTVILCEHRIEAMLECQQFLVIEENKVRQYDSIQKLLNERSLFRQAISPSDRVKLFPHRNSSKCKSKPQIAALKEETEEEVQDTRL

SMILES	EC50 [1] [nM]	EC50 [2] [nM]	Maximum % activity (with co-corrector)	Maximum % activity (without co-corrector)
COc1ncc(C(F)(F)F)cc1CO[C@H]1[C@H](C(C)(C)C)[C@@H](C(=O)O)N(C(=O)[C@@H]2CCCCO2)[C@H]1c1ccccc1-c1ccc(=O)n(C)c1 [Example 181, (2S,3R,4S,5S)-3-tert-butyl-4-{[2-methoxy-5-(trifluoromethyl)pyridin-3-yl]methoxy}-5-[2-(1-methyl-6-oxo-1,6-dihydropyridin-3-yl)phenyl]-1-[(2S)-oxane-2-carbonyl]pyrrolidine-2-carboxylic acid]	> 10000	1000 to 10000	++ (≥150 and <350)	+ (<100)
CCc1ccccc1[C@H]1[C@@H](OCc2ccc(C(F)(F)F)cc2OC)[C@H](C(C)(C)C)[C@@H](C(=O)O)N1C(=O)[C@@H]1CCCCO1 [Example 184, (2S,3R,4S,5S)-3-tert-butyl-5-(2-ethylphenyl)-4-{[2-methoxy-4-(trifluoromethyl)phenyl]methoxy}-1-[(2S)-oxane-2-carbonyl]pyrrolidine-2-carboxylic acid]	< 1000	< 1000	+++ (≥350)	+++ (≥200)
COc1ccc(C(C)(C)C#N)cc1CO[C@H]1[C@H](C(C)(C)C)[C@@H](C(=O)O)N(C(=O)[C@@H]2CCCCO2)[C@H]1c1ccccc1C [Example 187, (2S,3R,4S,5S)-3-tert-butyl-4-{[5-(2-cyanopropan-2-yl)-2-methoxyphenyl]methoxy}-5-(2-methylphenyl)-1-[(2S)-oxane-2-carbonyl]pyrrolidine-2-carboxylic acid]	1000 to 10000	< 1000	+++ (≥350)	+++ (≥200)
COc1ccc(C(C)(C)C)cc1CO[C@H]1[C@H](C(C)(C)C)[C@@H](C(=O)O)N(C(=O)[C@@H]2CCCCO2)[C@H]1c1ccccc1C [Example 188, (2S,3R,4S,5S)-3-tert-butyl-4-[(5-tert-butyl-2-methoxyphenyl)methoxy]-5-(2-methylphenyl)-1-[(2S)-oxane-2-carbonyl]pyrrolidine-2-carboxylic acid]	< 1000	< 1000	+++ (≥350)	+++ (≥200)
COc1ncc(C(F)(F)F)cc1CO[C@H]1[C@H](C(C)(C)C)[C@@H](C(=O)O)N(C(=O)[C@@H]2CCCCO2)[C@H]1c1ccccc1-c1ccc(F)cc1 [Example 190, (2S,3R,4S,5S)-3-tert-butyl-5-(4′-fluoro[1,1′-biphenyl]-2-yl)-4-{[2-methoxy-5-(trifluoromethyl)pyridin-3-yl]methoxy}-1-[(2S)-oxane-2-carbonyl]pyrrolidine-2-carboxylic acid]	1000 to 10000	1000 to 10000	+++ (≥350)	+++ (≥200)
COc1ncc(C(F)(F)F)cc1CO[C@H]1[C@H](C(C)(C)C)[C@@H](C(=O)O)N(C(=O)[C@@H]2CCCCO2)[C@H]1c1ccccc1-c1cccc(Cl)c1 [Example 191, (2S,3R,4S,5S)-3-tert-butyl-5-(3′-chloro[1,1′-biphenyl]-2-yl)-4-{[2-methoxy-5-(trifluoromethyl)pyridin-3-yl]methoxy}-1-[(2S)-oxane-2-carbonyl]pyrrolidine-2-carboxylic acid]	1000 to 10000	1000 to 10000	+++ (≥350)	+++ (≥200)
COc1ncc(C(F)(F)F)cc1CO[C@H]1[C@H](C(C)(C)C)[C@@H](C(=O)O)N(C(=O)[C@@H]2CCCCO2)[C@H]1c1ccccc1-c1cccc(N(C)C)c1 [Example 194, (2S,3R,4S,5S)-3-tert-butyl-5-[3′-(dimethylamino) [1,1′-biphenyl]-2-yl]-4-{[2-methoxy-5-(trifluoromethyl)pyridin-3-yl]methoxy}-1-[(2S)-oxane-2-carbonyl]pyrrolidine-2-carboxylic acid]	1000 to 10000	< 1000	+++ (≥350)	+++ (≥200)

Results, then the compound that gave them:

EC50 [1] [nM]	EC50 [2] [nM]	Maximum % activity (with co-corrector)	Maximum % activity (without co-corrector)	SMILES
< 1000	< 1000	+++ (≥350)	+++ (≥200)	COc1ncc(C(F)(F)F)cc1CO[C@H]1[C@H](C(C)(C)C)[C@@H](C(=O)O)N(C(=O)[C@@H]2CCCCO2)[C@H]1c1ccccc1-c1ccccc1 [Example 180, (2S,3R,4S,5S)-5-([1,1′-biphenyl]-2-yl)-3-tert-butyl-4-{[2-methoxy-5-(trifluoromethyl)pyridin-3-yl]methoxy}-1-[(2S)-oxane-2-carbonyl]pyrrolidine-2-carboxylic acid]
1000 to 10000	< 1000	+++ (≥350)	+++ (≥200)	COc1ncc(C2CCC2)cc1CO[C@H]1[C@H](C(C)(C)C)[C@@H](C(=O)O)N(C(=O)C2CCCCC2)[C@H]1c1ccccc1C1CC1 [Example 182, (2S,3R,4S,5S)-3-tert-butyl-4-[(5-cyclobutyl-2-methoxypyridin-3-yl)methoxy]-1-(cyclohexanecarbonyl)-5-(2-cyclopropylphenyl)pyrrolidine-2-carboxylic acid]
1000 to 10000	1000 to 10000	+++ (≥350)	++ (≥100 and <200)	COc1ncc(C2CCC2)cc1CO[C@H]1[C@H](C(C)(C)C)[C@@H](C(=O)O)N(C(=O)C2CCCCC2)[C@H]1c1ccccc1Br [Example 183, (2S,3R,4S,5S)-5-(2-bromophenyl)-3-tert-butyl-4-[(5-cyclobutyl-2-methoxypyridin-3-yl)methoxy]-1-(cyclohexanecarbonyl)pyrrolidine-2-carboxylic acid]
1000 to 10000	< 1000	+++ (≥350)	+++ (≥200)	CCc1ccccc1[C@H]1[C@@H](OCc2cc(C3CCC3)cnc2OC)[C@H](C(C)(C)C)[C@@H](C(=O)O)N1C(=O)[C@@H]1CCCCO1 [Example 185, (2S,3R,4S,5S)-3-tert-butyl-4-[(5-cyclobutyl-2-methoxypyridin-3-yl)methoxy]-5-(2-ethylphenyl)-1-[(2S)-oxane-2-carbonyl]pyrrolidine-2-carboxylic acid]
1000 to 10000	1000 to 10000	+++ (≥350)	+++ (≥200)	COc1nc2ccccc2cc1CO[C@H]1[C@H](C(C)(C)C)[C@@H](C(=O)O)N(C(=O)[C@@H]2CCCCO2)[C@H]1c1ccccc1C [Example 189, (2S,3R,4S,5S)-3-tert-butyl-4-[(2-methoxyquinolin-3-yl)methoxy]-5-(2-methylphenyl)-1-[(2S)-oxane-2-carbonyl]pyrrolidine-2-carboxylic acid]
1000 to 10000	1000 to 10000	++ (≥150 and <350)	+ (<100)	COc1ncc(C(F)(F)F)cc1CO[C@H]1[C@H](C(C)(C)C)[C@@H](C(=O)O)N(C(=O)[C@@H]2CCCCO2)[C@H]1c1ccccc1C1=CCN(C)CC1 [Example 192, (2S,3R,4S,5S)-3-tert-butyl-4-{[2-methoxy-5-(trifluoromethyl)pyridin-3-yl]methoxy}-5-[2-(1-methyl-1,2,3,6-tetrahydropyridin-4-yl)phenyl]-1-[(2S)-oxane-2-carbonyl]pyrrolidine-2-carboxylic acid]
1000 to 10000	1000 to 10000	+++ (≥350)	++ (≥100 and <200)	COc1ncc(C(F)(F)F)cc1CO[C@H]1[C@H](C(C)(C)C)[C@@H](C(=O)O)N(C(=O)[C@@H]2CCCCO2)[C@H]1c1ccccc1-c1cnn(C)c1 [Example 193, (2S,3R,4S,5S)-3-tert-butyl-4-{[2-methoxy-5-(trifluoromethyl)pyridin-3-yl]methoxy}-5-[2-(1-methyl-1H-pyrazol-4-yl)phenyl]-1-[(2S)-oxane-2-carbonyl]pyrrolidine-2-carboxylic acid]
1000 to 10000	1000 to 10000	+++ (≥350)	+++ (≥200)	COc1ncc(C(F)(F)F)cc1CO[C@H]1[C@H](C(C)(C)C)[C@@H](C(=O)O)N(C(=O)[C@@H]2CCCCO2)[C@H]1c1ccccc1-c1ccccc1C [Example 195, (2S,3R,4S,5S)-3-tert-butyl-4-{[2-methoxy-5-(trifluoromethyl)pyridin-3-yl]methoxy}-5-(2′-methyl[1,1′-biphenyl]-2-yl)-1-[(2S)-oxane-2-carbonyl]pyrrolidine-2-carboxylic acid]
1000 to 10000	1000 to 10000	+++ (≥350)	++ (≥100 and <200)	COc1ncc(C(F)(F)F)cc1CO[C@H]1[C@H](C(C)(C)C)[C@@H](C(=O)O)N(C(=O)[C@@H]2CCCCO2)[C@H]1c1ccccc1-c1ccncc1 [Example 196, (2S,3R,4S,5S)-3-tert-butyl-4-{[2-methoxy-5-(trifluoromethyl)pyridin-3-yl]methoxy}-1-[(2S)-oxane-2-carbonyl]-5-[2-(pyridin-4-yl)phenyl]pyrrolidine-2-carboxylic acid]
